In paper doi:10.1101/2024.09.20.614104v2, “SATAY-Based Chemogenomic Screening uncovers Antifungal Resistance Mechanisms and Key Determinants of ATI-2307 and Chitosan Sensitivity” (biorxiv, 2024):

Columns and labels:
Hol1 = molecular target: T1, Hol1 (Saccharomyces cerevisiae, UniProt P53389); experiment: LC-MS quantification of cellular uptake, wild-type versus hol1 deletion cells; assay type: cell-based; details: SC 2% ethanol, 30 °C, not an affinity constant
T1 construct: full-length native plasma membrane polyamine transporter in wild-type yeast; hol1 deletion strain as control

CaHOL1 = molecular target: T2, CaHOL1 (Candida albicans, UniProt Q5AP74); experiment: LC-MS quantification of cellular uptake, hol1 deletion cells with or without CaHOL1 plasmid; assay type: cell-based; details: 0.003 μg/mL ATI-2307, 2 h, SC -URA 2% ethanol, 30 °C
T2 construct: gene HOL1; full-length CDS PCR-amplified from genomic DNA, expressed from plasmid pBK994 in S. cerevisiae hol1 deletion strain
T2 sequence (Q5AP74 entry or part of it): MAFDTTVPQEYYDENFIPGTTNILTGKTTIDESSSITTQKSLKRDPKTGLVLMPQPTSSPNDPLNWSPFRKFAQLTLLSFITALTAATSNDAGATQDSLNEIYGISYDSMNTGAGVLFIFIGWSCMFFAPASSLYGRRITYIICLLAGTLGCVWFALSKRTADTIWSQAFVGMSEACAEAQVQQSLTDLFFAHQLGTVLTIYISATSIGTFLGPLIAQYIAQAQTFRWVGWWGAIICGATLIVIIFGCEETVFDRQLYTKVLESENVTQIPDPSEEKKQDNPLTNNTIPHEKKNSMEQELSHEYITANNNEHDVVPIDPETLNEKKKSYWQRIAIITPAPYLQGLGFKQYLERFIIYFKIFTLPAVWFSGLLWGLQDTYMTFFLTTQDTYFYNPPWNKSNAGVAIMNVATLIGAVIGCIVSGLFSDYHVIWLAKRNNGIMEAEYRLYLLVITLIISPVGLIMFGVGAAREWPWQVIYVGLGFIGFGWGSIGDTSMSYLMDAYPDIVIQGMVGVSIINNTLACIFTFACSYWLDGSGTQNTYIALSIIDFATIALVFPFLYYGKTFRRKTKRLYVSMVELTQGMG

T1 sequence (P53389 whole entry): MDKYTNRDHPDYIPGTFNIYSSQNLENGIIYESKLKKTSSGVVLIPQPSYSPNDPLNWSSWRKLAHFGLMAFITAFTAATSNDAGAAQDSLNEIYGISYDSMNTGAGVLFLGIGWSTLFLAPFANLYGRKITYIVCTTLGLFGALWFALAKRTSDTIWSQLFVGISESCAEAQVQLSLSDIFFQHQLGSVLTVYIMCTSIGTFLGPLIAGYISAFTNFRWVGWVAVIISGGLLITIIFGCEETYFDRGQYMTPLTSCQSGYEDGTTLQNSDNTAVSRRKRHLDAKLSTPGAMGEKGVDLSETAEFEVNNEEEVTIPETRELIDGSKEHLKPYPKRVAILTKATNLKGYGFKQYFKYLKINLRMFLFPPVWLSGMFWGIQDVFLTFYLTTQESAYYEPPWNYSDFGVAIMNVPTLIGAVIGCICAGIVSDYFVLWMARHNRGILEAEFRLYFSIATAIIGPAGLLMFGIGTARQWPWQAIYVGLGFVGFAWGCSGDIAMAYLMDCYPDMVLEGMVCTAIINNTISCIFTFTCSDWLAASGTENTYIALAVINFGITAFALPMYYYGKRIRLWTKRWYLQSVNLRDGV

## N=C(N)NCCCCCCCCNCCCCCCCCNC(=N)N [Iminoctadine]
Hol1; 1 μg/mL Iminoctadine, 2 h
  uptake, μg per gram of WT pellet: 52.5 μg/g pellet

## N=C(N)c1ccc(OCCCC2CCN(CCCOc3ccc(C(=N)N)cc3)CC2)cc1 [ATI-2307]
Hol1; 0.003 μg/mL ATI-2307, 2 h
  uptake, μg per gram of WT pellet: 0.1 μg/g pellet
CaHOL1
  LC-MS quantification of cellular uptake, hol1 deletion cells with or without CaH: heterologous expression of C. albicans HOL1 (CaHOL1) partially restored ATI-2307 uptake
